Laboratory results reported in patent US6809119B2, “Branched chain amino acid-dependent aminotransferase inhibitors and their use in the treatment of neurodegenerative diseases” (Warner-Lambert Company LLC, priority 2001, dated 2004).

How the values were obtained:
[1] = target: T1, rat BCAT cytosolic form (rrBCATc) (Rattus norvegicus, UniProt P54690); test: In vitro coupled enzyme assay, rat BCAT cytosolic form; assay type: biochemical; settings: inhibition of recombinant rat BCATc; coupled glutamate dehydrogenase/NADH assay, 37° C., pH 7.8
T1 construct: inferred from purification on a Ni-charged chelating column with imidazole elution; made in house; host or cells: E. coli BL21(DE3)
T1 sequence (P54690 1-411): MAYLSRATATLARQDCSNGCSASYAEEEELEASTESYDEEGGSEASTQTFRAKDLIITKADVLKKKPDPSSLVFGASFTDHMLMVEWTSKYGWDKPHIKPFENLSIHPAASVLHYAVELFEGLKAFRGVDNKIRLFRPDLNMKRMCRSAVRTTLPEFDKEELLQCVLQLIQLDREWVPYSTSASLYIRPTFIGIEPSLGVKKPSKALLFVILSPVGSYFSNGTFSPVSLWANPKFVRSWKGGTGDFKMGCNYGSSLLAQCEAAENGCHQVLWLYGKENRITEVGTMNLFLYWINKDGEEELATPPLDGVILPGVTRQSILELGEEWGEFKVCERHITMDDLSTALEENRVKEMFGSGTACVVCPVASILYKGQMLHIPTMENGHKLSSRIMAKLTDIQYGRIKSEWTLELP
Method: (§1) In vitro enzyme assay: human Branched Chain Amino Acid Aminotransferase cytosolic form (hBCATc) and mitochondrial form (hBCATm) as well as rat BCAT cytosolic form were assayed at 37° C. in 25 mM phosphate buffer pH 7.8. In addition, 2 mM DTT and 12.5 mM EDTA were added to the assay mixture. A coupling enzyme assay was used to monitor the production of glutamate. The formation of NADH from NAD+at […] was followed on a 96-well plate Molecular Devices plate reader. The following components were used in this coupled assay: 4 mM ADP, 1 mM NAD+, 750 μM L-Leucine, 500 μM a-ketoglutarate, 10 μM pyridoxal phosphate, 1 unit glutamate dehydrogenase, and 1.25 μg of the appropriate BCAT enzyme. Inhibitions by compounds were assayed by adding various concentrations to this coupled assay procedure as a DMSO stock up to a 5% v/v DMSO/buffer ratio.
(§2) Enzyme Preparation: humanBCATc and ratBCATc were expressed in BL21(DE3) cells. A growing culture of cells was induced with 1 mM IPTG at room temperature overnight. These cells were harvested by centrifugation at 10,000 g for 20 minutes. The supernatant was discarded, and the cells were stored at −80° C. until needed. The protein was purified by the following method. The cell paste was resuspended in extraction buffer (0.1 M phosphate, pH 8.0, with 0.01 M Tris-HCL and 5 mM TCEP and then lysed on a French Press at 1000 psi. The lysate was centrifuged at 10,000 g for 15 minutes, and the pellet was discarded. The supernatant was loaded onto a Hitrap Chelating column previously charged with 0.1 M NiSO4 and washed with 3 to 4 column volumes of extraction buffer. The column was then washed with 0.01 Tris, pH 7.5, 10% glycerol, 150 mM NaCl, 5 mM TCEP for two column volumes. The column was then further washed with two column volumes of 0.1 M phosphate, pH 6.0, 0.01 M Tris, 10% glycerol, and 750 mM NaCl. Finally, the column was washed with two column volumes of the same buffer plus 50 mM imidazole. The BCAT enzyme was then eluted with the same buffer but with 350 mM imidazole. The eluant was then dialyzed overnight against 10 mM phosphate buffer pH 8.0, 10% glycerol, and 5 mM TCEP. The dialyzed protein was then loaded onto a Q-sepharose column and eluted using a salt gradient. Active fractions were collected and further purified on a Superose-12 column to yield pure BCAT protein.

[2] = target: T2, human Branched Chain Amino Acid Aminotransferase cytosolic form (hBCATc) (Homo sapiens, UniProt P54687); test: In vitro coupled enzyme assay, human BCAT cytosolic form; assay type: biochemical; settings: inhibition of recombinant human BCATc; coupled glutamate dehydrogenase/NADH assay, 37° C., pH 7.8; read-out: rhBCATc
T2 construct: inferred from purification on a Ni-charged chelating column with imidazole elution; made in house; host or cells: E. coli BL21(DE3)
T2 sequence (P54687 1-386): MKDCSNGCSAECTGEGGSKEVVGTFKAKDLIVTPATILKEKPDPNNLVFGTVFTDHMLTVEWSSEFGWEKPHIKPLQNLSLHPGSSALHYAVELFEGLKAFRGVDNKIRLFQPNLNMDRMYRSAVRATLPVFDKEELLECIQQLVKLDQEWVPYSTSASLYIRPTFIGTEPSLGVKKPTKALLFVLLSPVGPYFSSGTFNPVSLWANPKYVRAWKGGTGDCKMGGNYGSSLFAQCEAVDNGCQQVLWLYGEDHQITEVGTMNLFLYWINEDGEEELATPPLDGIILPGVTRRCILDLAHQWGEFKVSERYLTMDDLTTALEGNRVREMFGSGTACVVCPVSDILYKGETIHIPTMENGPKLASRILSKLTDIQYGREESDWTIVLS
Method: as §1, §2

| SMILES | IC50 [1] | IC50 [2] | melting point |
| --- | --- | --- | --- |
| O=C(NNS(=O)(=O)c1ccccc1)c1ccc(CCc2ccccc2)cc1 [Example 33, Phenethyl-benzoic acid, 2-(phenylsulfonyl)hydrazide] | 0.25 µM | 14.3 µM | 158 to 159 °C |
| O=C(NNS(=O)(=O)c1ccccc1)c1cccc(Oc2ccccc2)c1 [Example 26, 3-Phenoxybenzoic acid, 2-(phenylsulfonyl)hydrazide] | 2.2 µM | 34 µM |  |
| O=C(NNS(=O)(=O)c1ccccc1)c1ccc([N+](=O)[O-])cc1 [Example 1, Benzoic acid, 4-nitro-2-(phenylsulfonyl)hydrazide] |  | 40 µM | 193 to 195 °C |
| O=C(NNS(=O)(=O)c1ccccc1)c1ccccc1Oc1ccccc1 [Example 27, 2-Phenoxybenzoic acid, 2-(phenylsulfonyl)hydrazide] |  | 50 µM | 149 to 150 °C |
| O=C(NNS(=O)(=O)c1ccccc1)c1ccc(C#CCC2CCCCC2)cc1 [Example 34, 4-(3-Cyclohexyl-1-propynyl)-benzoic acid, 2-(phenylsulfonyl)hydrazide] |  | 32.3 µM | 180 to 182 °C |
| Cc1cccc(S(=O)(=O)NNC(=O)c2ccc(Oc3ccccc3)cc2)c1 [Example 18, 4-Phenoxybenzoic acid, 2-[(3-methyl)phenylsulfonyl]hydrazide] | 1.2 µM | 9.5 µM |  |
| O=C(NNS(=O)(=O)c1cccc(Br)c1)c1ccc(Oc2ccccc2)cc1 [Example 19, 4-Phenoxybenzoic acid, 2-[3-bromophenylsulfonyl]hydrazide] | 2.8 µM | 28 µM |  |
| Cc1ccc(S(=O)(=O)NNC(=O)c2ccc(Oc3ccccc3)cc2)cc1[N+](=O)[O-] [Example 22, 4-Phenoxybenzoic acid, 2-[(4-methyl-3-nitro)phenylsulfonyl]hydrazide] |  | 110 µM |  |
| O=C(NNS(=O)(=O)c1ccccc1)c1ccc(I)cc1 [Example 31, 4-Iodo-benzoic acid, 2-(phenylsulfonyl)hydrazide] |  |  | 193 to 195 °C |
| O=C(NNS(=O)(=O)c1ccccc1)c1ccc(Oc2ccccc2)cc1 [Example 28, 4-Phenoxybenzoic acid, 2-(phenylsulfonyl)hydrazide] | 1.5 µM | 37 µM |  |
| O=C(NNS(=O)(=O)c1ccccc1OC(F)(F)F)c1ccc(Oc2ccccc2)cc1 [Example 21, 4-Phenoxybenzoic acid, 2-[2-(trifluoromethoxy)phenylsulfonyl]hydrazide] | 2.9 µM | 28 µM |  |
| O=C(NNS(=O)(=O)c1ccccc1Cl)c1ccc(Oc2ccccc2)cc1 [Example 20, 4-Phenoxybenzoic acid, 2-[2-chlorophenylsulfonyl]hydrazide] | 5.9 µM | 35 µM |  |

Other lines, results leading:

| IC50 [1] | IC50 [2] | melting point | SMILES |
| --- | --- | --- | --- |
|  | 0.7 µM | 195.7 to 196.2 °C | O=C(NNS(=O)(=O)c1ccccc1)c1ccc(NS(=O)(=O)c2c(Cl)cc(Cl)cc2Cl)cc1 [Example 3, Benzoic acid, 4-[[(2,4,6trichlorophenyl)sulfonyl]amino]-, 2-(phenylsulfonyl)hydrazide] |
|  |  | 214.4 to 215.6 °C | Cc1cccc(Cl)c1S(=O)(=O)Nc1ccc(C(=O)NNS(=O)(=O)c2ccccc2)cc1 [Example 7, Benzoic acid, 4-[[(2-chloro-6-methylphenyl)sulfonyl]amino]-, 2-(phenylsulfonyl)hydrazide] |
|  | 7 µM | 185.6 to 186.5 °C | CS(=O)(=O)Nc1ccc(C(=O)NNS(=O)(=O)c2ccccc2)cc1 [Example 8, Benzoic acid, 4-[(methylsulfonyl)amino]-, 2-(phenylsulfonyl)hydrazide] |
|  | 6 µM | 98.5 to 99.4 °C | O=C(NNS(=O)(=O)c1ccccc1)c1ccc(NS(=O)(=O)c2ccc(C(F)(F)F)cc2)cc1 [Example 4, Benzoic acid, 4-[[[4-(trifluoromethyl)phenyl]sulfonyl]amino]-, 2-(phenylsulfonyl)hydrazide] |
|  | 4.9 µM | 140.8 to 144.5 °C | O=C(NNS(=O)(=O)c1ccccc1)c1ccc(NS(=O)(=O)c2ccccc2)cc1 [Example 15] |
|  | 2.3 µM |  | Cc1cccc(S(=O)(=O)Nc2ccc(C(=O)NNS(=O)(=O)c3ccccc3)cc2)c1 [Example 17, Benzoic acid, 4-[[(3-methylphenyl)sulfonyl]amino]-, 2-(phenylsulfonyl)hydrazide] |
|  | 3 µM | 94.1 to 94.9 °C | O=C(NNS(=O)(=O)c1ccccc1)c1ccc(NS(=O)(=O)c2ccc(Oc3ccccc3)cc2)cc1 [Example 6, Benzoic acid, 4-[[[(4-phenoxy)benzene]sulfonyl]amino]-, 2-(phenylsulfonyl)hydrazide] |
|  | 2.8 µM | 164.3 to 164.9 °C | COc1ccc(S(=O)(=O)Nc2ccc(C(=O)NNS(=O)(=O)c3ccccc3)cc2)cc1 [Example 30, Benzoic acid, 4-[[(4-methoxyphenyl)sulfonyl]amino]-, 2-(phenylsulfonyl)hydrazide] |
| 0.43 µM | 17 µM |  | O=C(NNS(=O)(=O)c1ccccc1C(F)(F)F)c1ccc(Oc2ccccc2)cc1 [Example 23, 4-Phenoxybenzoic acid, 2-[2-trifluorophenylsulfonyl]hydrazide] |
|  | 7.5 µM |  | CCCc1ccc(S(=O)(=O)Nc2ccc(C(=O)NNS(=O)(=O)c3ccccc3)cc2)cc1 [Example 11, Benzoic acid, 4-[[(4-n-propylphenyl)sulfonyl]amino]-, 2-(phenylsulfonyl)hydrazide] |
|  | 13 µM | 142.3 to 142.9 °C | CCc1ccc(S(=O)(=O)Nc2ccc(C(=O)NNS(=O)(=O)c3ccccc3)cc2)cc1 [Example 10, Benzoic acid, 4-[[(4-ethylphenyl)sulfonyl]amino]-, 2-(phenylsulfonyl)hydrazide] |
|  |  | 219 to 219.7 °C | Cc1cccc(S(=O)(=O)Nc2ccc(C(=O)NNS(=O)(=O)c3ccccc3)cc2)c1 (hydrate or solvate) [Example 17, Benzoic acid, 4-[[(3-methylphenyl)sulfonyl]amino]-, 2-(phenylsulfonyl)hydrazide] |
|  | 3.8 µM | 191.6 to 192.4 °C | Cc1ccc(S(=O)(=O)Nc2ccc(C(=O)NNS(=O)(=O)c3ccccc3)cc2)cc1 [Example 9, Benzoic acid, 4-[[(4-methylphenyl)sulfonyl]amino]-, 2-(phenylsulfonyl)hydrazide] |
|  | 4.6 µM | 76 to 77.1 °C | CCCCc1ccc(S(=O)(=O)Nc2ccc(C(=O)NNS(=O)(=O)c3ccccc3)cc2)cc1 [Example 12, Benzoic acid, 4-[[(4-n-butylphenyl)sulfonyl]amino]-, 2-(phenylsulfonyl)hydrazide] |
|  | 4.8 µM | 183.5 to 185 °C | O=C(NNS(=O)(=O)c1ccccc1)c1ccc(NS(=O)(=O)c2ccc(F)cc2)cc1 [Example 14, Benzoic acid, 4-[[(4-fluorophenyl)sulfonyl]amino]-, 2-(phenylsulfonyl)hydrazide] |
